These compounds were tested on Alopecurus myosuroides (ALOMY) (assay: Example B pre-emergence herbicidal activity, glasshouse pot test). Details: 312 h, rate 1000 g/ha, evaluated after 13 days, read-out: Pre-emergence activity ALOMY (100=total damage to plant; 0=no damage to plant).
Type: in vivo
In short: (§1)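 One day (pre) or eight days (post) after sowing, pots received a spray of test compound formulated in acetone/water 50:50 with 0.5% Tween 20; plants were then kept under controlled glasshouse conditions with watering twice daily and assessed for damage (0–100) at 13 days.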
`CCc1ccc(-c2ccc(Cl)cc2)cc1C1=C(O)C(C)(C)OC(C)C1=O` (single isomer, unassigned) [Compound A-26] gave a pest or weed control at 1000 g/ha of 80%. Work on `CCc1ccc(-c2ccc(Cl)cc2)cc1C1=C(O)[C@@]2(C)CC[C@H](O2)C1=O` (single isomer, unassigned) [Compound A-29] yielded a pest or weed control at 1000 g/ha of 90%. For `Cc1ccc(-c2ccc(Cl)cc2)cc1C1=C(O)[C@@]2(C)CC[C@H](O2)C1=O` (single isomer, unassigned) [Compound A-30], the pest or weed control at 1000 g/ha was 80%.

What follows are compounds tested on Amaranthus retroflexus (AMARE) in the same assay as above. Details: 312 h, rate 1000 g/ha, evaluated after 13 days, read-out: Pre-emergence activity AMARE (100=total damage to plant; 0=no damage to plant).
Type: in vivo
In short: as §1
For `CCc1ccc(-c2ccc(Cl)cc2)cc1C1=C(O)C(C)(C)OC(C)C1=O` (single isomer, unassigned) [Compound A-26], the pest or weed control at 1000 g/ha was 0%. `CCc1ccc(-c2ccc(Cl)cc2)cc1C1=C(O)[C@@]2(C)CC[C@H](O2)C1=O` (single isomer, unassigned) [Compound A-29] gave a pest or weed control at 1000 g/ha of 0%. `Cc1ccc(-c2ccc(Cl)cc2)cc1C1=C(O)[C@@]2(C)CC[C@H](O2)C1=O` (single isomer, unassigned) [Compound A-30] was tested, and the pest or weed control at 1000 g/ha was 0%.

The compounds below were run on Avena fatua (AVEFA) in the same assay as above. Details: 312 h, rate 1000 g/ha, evaluated after 13 days, read-out: Pre-emergence activity AVEFA (100=total damage to plant; 0=no damage to plant).
Type: in vivo
In short: as §1
For `CCc1ccc(-c2ccc(Cl)cc2)cc1C1=C(O)C(C)(C)OC(C)C1=O` (single isomer, unassigned) [Compound A-26], the pest or weed control at 1000 g/ha was 80%. Work on `CCc1ccc(-c2ccc(Cl)cc2)cc1C1=C(O)[C@@]2(C)CC[C@H](O2)C1=O` (single isomer, unassigned) [Compound A-29] yielded a pest or weed control at 1000 g/ha of 80%. `Cc1ccc(-c2ccc(Cl)cc2)cc1C1=C(O)[C@@]2(C)CC[C@H](O2)C1=O` (single isomer, unassigned) [Compound A-30] was tested, and the pest or weed control at 1000 g/ha was 70%.

The compounds below were run on Echinochloa crus-galli (ECHCG) in the same assay as above. Details: 312 h, rate 1000 g/ha, evaluated after 13 days, read-out: Pre-emergence activity ECHCG (100=total damage to plant; 0=no damage to plant).
Type: in vivo
In short: as §1
`CCc1ccc(-c2ccc(Cl)cc2)cc1C1=C(O)C(C)(C)OC(C)C1=O` (single isomer, unassigned) [Compound A-26] gave a pest or weed control at 1000 g/ha of 100%. For `CCc1ccc(-c2ccc(Cl)cc2)cc1C1=C(O)[C@@]2(C)CC[C@H](O2)C1=O` (single isomer, unassigned) [Compound A-29], the pest or weed control at 1000 g/ha was 100%. For `Cc1ccc(-c2ccc(Cl)cc2)cc1C1=C(O)[C@@]2(C)CC[C@H](O2)C1=O` (single isomer, unassigned) [Compound A-30], the pest or weed control at 1000 g/ha was 100%.

Each compound was assayed on Setaria faberi (SETFA) in the same assay as above. Details: 312 h, rate 1000 g/ha, evaluated after 13 days, read-out: Pre-emergence activity SETFA (100=total damage to plant; 0=no damage to plant).
Type: in vivo
In short: as §1
For `CCc1ccc(-c2ccc(Cl)cc2)cc1C1=C(O)C(C)(C)OC(C)C1=O` (single isomer, unassigned) [Compound A-26], the pest or weed control at 1000 g/ha was 100%. `CCc1ccc(-c2ccc(Cl)cc2)cc1C1=C(O)[C@@]2(C)CC[C@H](O2)C1=O` (single isomer, unassigned) [Compound A-29] showed a pest or weed control at 1000 g/ha of 100%. For `Cc1ccc(-c2ccc(Cl)cc2)cc1C1=C(O)[C@@]2(C)CC[C@H](O2)C1=O` (single isomer, unassigned) [Compound A-30], the pest or weed control at 1000 g/ha was 100%.

These compounds were tested on Solanum nigrum (SOLNI) in the same assay as above. Details: 312 h, rate 1000 g/ha, evaluated after 13 days, read-out: Pre-emergence activity SOLNI (100=total damage to plant; 0=no damage to plant).
Type: in vivo
In short: as §1
Work on `CCc1ccc(-c2ccc(Cl)cc2)cc1C1=C(O)C(C)(C)OC(C)C1=O` (single isomer, unassigned) [Compound A-26] yielded a pest or weed control at 1000 g/ha of 0%. Compound `CCc1ccc(-c2ccc(Cl)cc2)cc1C1=C(O)[C@@]2(C)CC[C@H](O2)C1=O` (single isomer, unassigned) [Compound A-29] has a pest or weed control at 1000 g/ha of 0%. `Cc1ccc(-c2ccc(Cl)cc2)cc1C1=C(O)[C@@]2(C)CC[C@H](O2)C1=O` (single isomer, unassigned) [Compound A-30] was tested, and the pest or weed control at 1000 g/ha was 0%.

Each compound was assayed on Alopecurus myosuroides (ALOMY) (assay: Example B post-emergence herbicidal activity, glasshouse pot test). Details: 312 h, rate 1000 g/ha, evaluated after 13 days, read-out: Post-emergence activity ALOMY (100=total damage to plant; 0=no damage to plant).
Type: in vivo
In short: as §1
Work on `CCc1ccc(-c2ccc(Cl)cc2)cc1C1=C(O)C(C)(C)OC(C)C1=O` (single isomer, unassigned) [Compound A-26] yielded a pest or weed control at 1000 g/ha of 100%. In the case of `CCc1ccc(-c2ccc(Cl)cc2)cc1C1=C(O)[C@@]2(C)CC[C@H](O2)C1=O` (single isomer, unassigned) [Compound A-29], the pest or weed control at 1000 g/ha is reported as 100%. `Cc1ccc(-c2ccc(Cl)cc2)cc1C1=C(O)[C@@]2(C)CC[C@H](O2)C1=O` (single isomer, unassigned) [Compound A-30] was tested, and the pest or weed control at 1000 g/ha was 90%.

Each compound was assayed on Amaranthus retroflexus (AMARE) in the same assay as above. Details: 312 h, rate 1000 g/ha, evaluated after 13 days, read-out: Post-emergence activity AMARE (100=total damage to plant; 0=no damage to plant).
Type: in vivo
In short: as §1
`CCc1ccc(-c2ccc(Cl)cc2)cc1C1=C(O)C(C)(C)OC(C)C1=O` (single isomer, unassigned) [Compound A-26] gave a pest or weed control at 1000 g/ha of 100%. Work on `CCc1ccc(-c2ccc(Cl)cc2)cc1C1=C(O)[C@@]2(C)CC[C@H](O2)C1=O` (single isomer, unassigned) [Compound A-29] yielded a pest or weed control at 1000 g/ha of 40%. `Cc1ccc(-c2ccc(Cl)cc2)cc1C1=C(O)[C@@]2(C)CC[C@H](O2)C1=O` (single isomer, unassigned) [Compound A-30] showed a pest or weed control at 1000 g/ha of 70%.

What follows are compounds tested on Avena fatua (AVEFA) in the same assay as above. Details: 312 h, rate 1000 g/ha, evaluated after 13 days, read-out: Post-emergence activity AVEFA (100=total damage to plant; 0=no damage to plant).
Type: in vivo
In short: as §1
Work on `CCc1ccc(-c2ccc(Cl)cc2)cc1C1=C(O)C(C)(C)OC(C)C1=O` (single isomer, unassigned) [Compound A-26] yielded a pest or weed control at 1000 g/ha of 100%. `CCc1ccc(-c2ccc(Cl)cc2)cc1C1=C(O)[C@@]2(C)CC[C@H](O2)C1=O` (single isomer, unassigned) [Compound A-29] was tested, and the pest or weed control at 1000 g/ha was 100%. `Cc1ccc(-c2ccc(Cl)cc2)cc1C1=C(O)[C@@]2(C)CC[C@H](O2)C1=O` (single isomer, unassigned) [Compound A-30] showed a pest or weed control at 1000 g/ha of 100%.

The compounds below were run on Echinochloa crus-galli (ECHCG) in the same assay as above. Details: 312 h, rate 1000 g/ha, evaluated after 13 days, read-out: Post-emergence activity ECHCG (100=total damage to plant; 0=no damage to plant).
Type: in vivo
In short: as §1
`CCc1ccc(-c2ccc(Cl)cc2)cc1C1=C(O)C(C)(C)OC(C)C1=O` (single isomer, unassigned) [Compound A-26] was tested, and the pest or weed control at 1000 g/ha was 100%. Work on `CCc1ccc(-c2ccc(Cl)cc2)cc1C1=C(O)[C@@]2(C)CC[C@H](O2)C1=O` (single isomer, unassigned) [Compound A-29] yielded a pest or weed control at 1000 g/ha of 100%. `Cc1ccc(-c2ccc(Cl)cc2)cc1C1=C(O)[C@@]2(C)CC[C@H](O2)C1=O` (single isomer, unassigned) [Compound A-30] was tested, and the pest or weed control at 1000 g/ha was 100%.

Each compound was assayed on Setaria faberi (SETFA) in the same assay as above. Details: 312 h, rate 1000 g/ha, evaluated after 13 days, read-out: Post-emergence activity SETFA (100=total damage to plant; 0=no damage to plant).
Type: in vivo
In short: as §1
In the case of `CCc1ccc(-c2ccc(Cl)cc2)cc1C1=C(O)C(C)(C)OC(C)C1=O` (single isomer, unassigned) [Compound A-26], the pest or weed control at 1000 g/ha is reported as 100%. `CCc1ccc(-c2ccc(Cl)cc2)cc1C1=C(O)[C@@]2(C)CC[C@H](O2)C1=O` (single isomer, unassigned) [Compound A-29] was tested, and the pest or weed control at 1000 g/ha was 100%. With `Cc1ccc(-c2ccc(Cl)cc2)cc1C1=C(O)[C@@]2(C)CC[C@H](O2)C1=O` (single isomer, unassigned) [Compound A-30] the pest or weed control at 1000 g/ha was 100%.

These compounds were tested on Solanum nigrum (SOLNI) in the same assay as above. Details: 312 h, rate 1000 g/ha, evaluated after 13 days, read-out: Post-emergence activity SOLNI (100=total damage to plant; 0=no damage to plant).
Type: in vivo
In short: as §1
`CCc1ccc(-c2ccc(Cl)cc2)cc1C1=C(O)C(C)(C)OC(C)C1=O` (single isomer, unassigned) [Compound A-26] gave a pest or weed control at 1000 g/ha of 50%. `CCc1ccc(-c2ccc(Cl)cc2)cc1C1=C(O)[C@@]2(C)CC[C@H](O2)C1=O` (single isomer, unassigned) [Compound A-29] showed a pest or weed control at 1000 g/ha of 60%. With `Cc1ccc(-c2ccc(Cl)cc2)cc1C1=C(O)[C@@]2(C)CC[C@H](O2)C1=O` (single isomer, unassigned) [Compound A-30] the pest or weed control at 1000 g/ha was 70%.

From patent publication US8680012B2, “4-phenyl-pyrane-3,5-diones,4-phenyl-thiopyrane-3,6-diones and cyclohexanetriones as novel herbicides” (Syngenta Crop Protection LLC, priority 2006, dated 2014)
